Results as given in ChEMBL document CHEMBL3885881, “DrugMatrix”.

Species on record: Rattus norvegicus
Type: toxicity, organism-based, Sprague-Dawley
Details: in vivo, po, route oral GAVAGE, vehicle 100 % SALINE; for ABSOLUTE EOSINOPHIL / ABSOLUTE LYMPHOCYTE / ABSOLUTE MONOCYTE / ABSOLUTE SEGMENTED NEUTROPHIL / BASOPHIL / EOSINOPHIL / ERYTHROCYTE COUNT / HEMATOCRIT / HEMOGLOBIN / LEUKOCYTE COUNT / LYMPHOCYTE / MEAN CORPUSCULAR HEMOGLOBIN / MEAN CORPUSCULAR HEMOGLOBIN CONCENTRATION / MEAN CORPUSCULAR VOLUME / MONOCYTE / NEUTROPHIL / NUCLEATED RED BLOOD CELLS / PLATELET COUNT: tissue Blood; for ALANINE AMINOTRANSFERASE / ALBUMIN / ALKALINE PHOSPHATASE / ASPARTATE AMINOTRANSFERASE / BLOOD UREA NITROGEN / CARBON DIOXIDE / CHLORIDE / CHOLESTEROL / CREATINE PHOSPHOKINASE / CREATININE / GLUCOSE / LACTATE DEHYDROGENASE / LIPASE / PHOSPHORUS / POTASSIUM / SODIUM / TOTAL BILIRUBIN / TOTAL PROTEIN / URIC ACID: tissue Plasma
[1] = 3000 mg/kg, 24 h, dose level Low, time 1 day
[2] = 6000 mg/kg, 6 h, dose level High, time 0.25 day
[3] = 6000 mg/kg, 24 h, dose level High, time 1 day

Description: DrugMatrix - Regimen: Single

## CCO [ALCOHOL]
[1]
  ABSOLUTE EOSINOPHIL: 30.5 CELLS/uL
  ABSOLUTE LYMPHOCYTE: 9902 CELLS/uL
  ABSOLUTE MONOCYTE: 124.33 CELLS/uL
  ABSOLUTE SEGMENTED NEUTROPHIL: 1059.83 CELLS/uL
  BASOPHIL: 0%
  EOSINOPHIL: 0.17%
  ERYTHROCYTE COUNT: 5.39 x10E6/uL
  HEMATOCRIT: 34.67%
  HEMOGLOBIN: 13.7 G/DL
  LEUKOCYTE COUNT: 11.12 x10E3/uL
  LYMPHOCYTE: 88.17%
  MEAN CORPUSCULAR HEMOGLOBIN: 25.42 pg
  MEAN CORPUSCULAR HEMOGLOBIN CONCENTRATION: 39.57 G/DL
  MEAN CORPUSCULAR VOLUME: 64.33 fL
  MONOCYTE: 1.17%
  NEUTROPHIL: 10.5%
  NUCLEATED RED BLOOD CELLS: 0 /100WBC
  PLATELET COUNT: 1071.33 x10E3/uL
  ALANINE AMINOTRANSFERASE: 70.67 u/L
  ALBUMIN: 4.18 G/DL
  ALKALINE PHOSPHATASE: 267 u/L
  ASPARTATE AMINOTRANSFERASE: 95.33 u/L
  BLOOD UREA NITROGEN: 11.67 mg/dL
  CARBON DIOXIDE: 35.67 mmol/L
  CHLORIDE: 99.5 MEQ/L
  CHOLESTEROL: 80.17 mg/dL
  CREATINE PHOSPHOKINASE: 199.5 u/L
  CREATININE: 0.21 mg/dL
  GLUCOSE: 141 mg/dL
  LACTATE DEHYDROGENASE: 59.67 u/L
  LIPASE: 9.67 u/L
  PHOSPHORUS: 10.12 mg/dL
  POTASSIUM: 5.58 MEQ/L
  SODIUM: 145.6 MEQ/L
  TOTAL BILIRUBIN: 0.17 mg/dL
  TOTAL PROTEIN: 6.1 G/DL
  URIC ACID: 0.45 mg/dL
[2]
  ABSOLUTE EOSINOPHIL: 29.17 CELLS/uL
  ABSOLUTE LYMPHOCYTE: 14165.5 CELLS/uL
  ABSOLUTE MONOCYTE: 257.5 CELLS/uL
  ABSOLUTE SEGMENTED NEUTROPHIL: 3164.5 CELLS/uL
  BASOPHIL: 0%
  EOSINOPHIL: 0.17%
  ERYTHROCYTE COUNT: 5.58 x10E6/uL
  HEMATOCRIT: 37.53%
  HEMOGLOBIN: 13.8 G/DL
  LEUKOCYTE COUNT: 17.62 x10E3/uL
  LYMPHOCYTE: 81.33%
  MEAN CORPUSCULAR HEMOGLOBIN: 24.78 pg
  MEAN CORPUSCULAR HEMOGLOBIN CONCENTRATION: 36.83 G/DL
  MEAN CORPUSCULAR VOLUME: 67.33 fL
  MONOCYTE: 1.33%
  NEUTROPHIL: 17.17%
  NUCLEATED RED BLOOD CELLS: 0 /100WBC
  PLATELET COUNT: 1061.5 x10E3/uL
  ALANINE AMINOTRANSFERASE: 46 u/L
  ALBUMIN: 3.8 G/DL
  ALKALINE PHOSPHATASE: 242.17 u/L
  ASPARTATE AMINOTRANSFERASE: 95.83 u/L
  BLOOD UREA NITROGEN: 12.33 mg/dL
  CARBON DIOXIDE: 17.17 mmol/L
  CHLORIDE: 105.33 MEQ/L
  CHOLESTEROL: 77 mg/dL
  CREATINE PHOSPHOKINASE: 431.5 u/L
  CREATININE: 0.13 mg/dL
  GLUCOSE: 194.5 mg/dL
  LACTATE DEHYDROGENASE: 355.33 u/L
  LIPASE: 9.33 u/L
  PHOSPHORUS: 16.82 mg/dL
  POTASSIUM: 5.94 MEQ/L
  SODIUM: 144.57 MEQ/L
  TOTAL BILIRUBIN: 0.0667 mg/dL
  TOTAL PROTEIN: 5.12 G/DL
  URIC ACID: 2.45 mg/dL
[3]
  ABSOLUTE EOSINOPHIL: 0 CELLS/uL
  ABSOLUTE LYMPHOCYTE: 13674.83 CELLS/uL
  ABSOLUTE MONOCYTE: 258.33 CELLS/uL
  ABSOLUTE SEGMENTED NEUTROPHIL: 983.5 CELLS/uL
  BASOPHIL: 0%
  EOSINOPHIL: 0%
  ERYTHROCYTE COUNT: 5.27 x10E6/uL
  HEMATOCRIT: 34.4%
  HEMOGLOBIN: 13.68 G/DL
  LEUKOCYTE COUNT: 14.92 x10E3/uL
  LYMPHOCYTE: 91.33%
  MEAN CORPUSCULAR HEMOGLOBIN: 26.03 pg
  MEAN CORPUSCULAR HEMOGLOBIN CONCENTRATION: 39.82 G/DL
  MEAN CORPUSCULAR VOLUME: 65.33 fL
  MONOCYTE: 1.83%
  NEUTROPHIL: 6.83%
  NUCLEATED RED BLOOD CELLS: 0 /100WBC
  PLATELET COUNT: 1124.67 x10E3/uL
  ALANINE AMINOTRANSFERASE: 81 u/L
  ALBUMIN: 3.95 G/DL
  ALKALINE PHOSPHATASE: 284.5 u/L
  ASPARTATE AMINOTRANSFERASE: 90.67 u/L
  BLOOD UREA NITROGEN: 11.5 mg/dL
  CARBON DIOXIDE: 32.5 mmol/L
  CHLORIDE: 100.67 MEQ/L
  CHOLESTEROL: 68.83 mg/dL
  CREATINE PHOSPHOKINASE: 207.83 u/L
  CREATININE: 0.3 mg/dL
  GLUCOSE: 144 mg/dL
  LACTATE DEHYDROGENASE: 74 u/L
  LIPASE: 9 u/L
  PHOSPHORUS: 10.7 mg/dL
  POTASSIUM: 5.34 MEQ/L
  SODIUM: 145 MEQ/L
  TOTAL BILIRUBIN: 0.15 mg/dL
  TOTAL PROTEIN: 5.78 G/DL
  URIC ACID: 0.53 mg/dL
